Read-outs that look alike come from different tables or passages of the source.
Assays:
P. falciparum LDH = P. falciparum LDH (Plasmodium falciparum, UniProt Q27743); assay: Fluorescence-coupled LDH enzyme assay on microfluidics system with continuously variable concentration gradient; type: biochemical
Description: A fluorescence-coupled enzyme assay was developed using a microfluidics system described herein for creating a continuously variable concentration gradient to monitor the reduction of NAD^+ by the enzyme LDH to give a fluorescent end product. This system was then adapted to measure potency and determine mechanism of inhibition by various inhibitors of LDH.
One of the products of the reaction in the assay, NADH, is coupled to Thermus thermophilus NADH oxidase to generate H2O2, which in turn is coupled to horseraddish peroxidase which reacts with […] and amplex red (Molecular Probes, Inc., Eugene, Oreg., U.S.A.) to give the fluorescent product resorufin. […]
The novel data analysis techniques described herein for determining the mechanism of inhibition of an inhibitor (or mechanism of activation of an activator) are applied to the data produced from the microfluidics system. The titration of the enzyme with a continuous linear variation of inhibitor and substrate from zero to a pre-determined finite concentration yields a characteristic rate profile that is defined by the specific type of interaction of the inhibitor and enzyme with respect to the substrate. […]
The titration of LDH with a linear gradient of NAD^+ was performed on the microfluidics system described herein with the change in relative fluorescence intensity monitored under initial rate conditions. […]

[1] = target: rabbit muscle lactate dehydrogenase (LDH) (Oryctolagus cuniculus, UniProt P13491); assay: Continuous variation method on a microtiter plate (step concentration gradients); type: biochemical; details: limited data
Description: Determination of the mechanism of inhibition by the inhibitor oxalate with respect to the substrate NAD^+ against the enzyme rabbit muscle lactate dehydrogenase (LDH) using a microtiter plate to generate individual step concentration gradients was attempted. FIG. 49 is a graph showing the results of the experiment. An attempt to determine the mechanism of inhibition by the inhibitor oxalate with respect to the substrate lactate against the enzyme rabbit muscle LDH using a microtiter plate to generate individual step concentration gradients was attempted. FIG. 50 is a graph showing the results of this experiment.

LDH = details: cited from earlier work

Sequence of P. falciparum LDH (Q27743 whole entry): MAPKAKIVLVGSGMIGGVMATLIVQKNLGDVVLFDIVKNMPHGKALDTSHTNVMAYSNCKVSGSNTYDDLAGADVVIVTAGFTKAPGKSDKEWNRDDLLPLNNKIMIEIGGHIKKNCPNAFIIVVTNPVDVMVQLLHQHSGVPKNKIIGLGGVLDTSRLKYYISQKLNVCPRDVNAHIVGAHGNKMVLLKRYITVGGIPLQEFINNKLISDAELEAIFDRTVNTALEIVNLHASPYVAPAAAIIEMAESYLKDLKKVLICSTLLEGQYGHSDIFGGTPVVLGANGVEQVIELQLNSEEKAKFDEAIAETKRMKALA

Structure (SMILES) | Km (P. falciparum LDH; titration of LDH with linear gradient of NAD^+, initial rate conditions) | mechanism of inhibition ([1]; with respect to NAD^+, ambiguous) | mechanism of inhibition ([1]; with respect to lactate) | mechanism of inhibition (P. falciparum LDH; with respect to substrate NAD^+) | inhibition mechanism (LDH; with respect to NAD^+) | inhibition mechanism (LDH; with respect to lactate, reported previously)
NC(=O)c1ccc[n+]([C@@H]2O[C@H](COP(=O)([O-])OP(=O)(O)OC[C@H]3O[C@@H](n4cnc5c(N)ncnc54)[C@H](O)[C@@H]3O)[C@@H](O)[C@H]2O)c1 [NAD^+] | 54 ± 2 µM |  |  |  |  | 
O=C(O)C(=O)O [oxalate] |  | uncompetitive inhibitor | competitive inhibitor | uncompetitive inhibition | uncompetitive | competitive inhibitor

— patent US20090142846A1, “METHODS FOR MEASURING BIOCHEMICAL REACTIONS” (EKSIGENT TECHNOLOGIES, LLC, priority 2005, published 2009)
